Assay results published in PubChem BioAssay AID2060495 (Molecular Pharmacology Branch, DTP, NCI, 2025).
pIC50: −log10 of the molar value.

Test system: 521955-158-R2-J5-PDC complex spheroid viability
Experiment: Anticancer human tumor 521955-158-R2-J5-PDC patient-derived pancreatic carcinoma cell line growth inhibition [GQUAD]
Conditions: for pIC50: curve of first compound; for viability, T/C: stronger effect = lower value
In short: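 Multi-cell-type spheroids of tumor cells with HUVEC and mesenchymal stem cells, treated with drug combinations. Concentrations descend in half-log steps from near clinical Cmax, or from 10 microM where Cmax is unknown; viability read-out.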

[1] = second compound 0.0316 µM, first compound 0.0316 µM
[2] = second compound 0.0316 µM, first compound 0.316 µM
[3] = second compound 0.1 µM, first compound 0.0316 µM
[4] = second compound 0.1 µM, first compound 0.316 µM
[5] = second compound 0.316 µM, first compound 0.0316 µM
[6] = second compound 0.316 µM, first compound 0.316 µM
[7] = second compound 1 µM, first compound 0.0316 µM
[8] = second compound 1 µM, first compound 0.316 µM
[9] = second compound 3.16 µM, first compound 0.0316 µM
[10] = second compound 3.16 µM, first compound 0.316 µM
[11] = second compound 10 µM, first compound 0.0316 µM
[12] = second compound 10 µM, first compound 0.316 µM
[13] = second compound 0.0316 µM, first compound 0.1 µM
[14] = second compound 0.0316 µM, first compound 1 µM
[15] = second compound 0.0316 µM, first compound 3.16 µM
[16] = second compound 0.0316 µM, first compound 10 µM
[17] = second compound 0.1 µM, first compound 0.1 µM
[18] = second compound 0.1 µM, first compound 1 µM
[19] = second compound 0.1 µM, first compound 3.16 µM
[20] = second compound 0.1 µM, first compound 10 µM
[21] = second compound 0.316 µM, first compound 0.1 µM
[22] = second compound 0.316 µM, first compound 1 µM
[23] = second compound 0.316 µM, first compound 3.16 µM
[24] = second compound 0.316 µM, first compound 10 µM
[25] = second compound 1 µM, first compound 0.1 µM
[26] = second compound 1 µM, first compound 1 µM
[27] = second compound 1 µM, first compound 3.16 µM
[28] = second compound 1 µM, first compound 10 µM
[29] = second compound 3.16 µM, first compound 0.1 µM
[30] = second compound 3.16 µM, first compound 1 µM
[31] = second compound 3.16 µM, first compound 3.16 µM
[32] = second compound 3.16 µM, first compound 10 µM
[33] = second compound 10 µM, first compound 0.1 µM
[34] = second compound 10 µM, first compound 1 µM
[35] = second compound 10 µM, first compound 3.16 µM
[36] = second compound 10 µM, first compound 10 µM
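Note: spheroids exposed to agents for one week before reading.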
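Throughout, for viability, T/C: 100% = DMSO vehicle control viability.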

Question: Cc1[nH]c2ccccc2c1CCNCc1ccc(/C=C/C(=O)NO)cc1 + CN(C)c1ccc(Nc2c3ccc(NC(=O)CCN4CCCC4)cc3nc3cc(NC(=O)CCN4CCCC4)ccc23)cc1 was tested. Which pIC50 (second compound 0.0316 µM) did it give?
Answer: 6.77

Question: And the pIC50 (second compound 0.1 µM)?
Answer: 6.93

Question: And the pIC50 (second compound 0.316 µM)?
Answer: 6.81

Question: What about the pIC50 (second compound 1 µM) of the same molecule?
Answer: 6.74

Question: And the pIC50 (second compound 3.16 µM)?
Answer: 6.92

Question: And the pIC50 (second compound 10 µM)?
Answer: 7.17

Question: What about the viability, T/C (second compound 0.0316 µM, first compound 0.000999 µM) of the same molecule?
Answer: 132%

Question: And the viability, T/C (second compound 0.0316 µM, first compound 0.00316 µM)?
Answer: 110%

Question: What about the viability, T/C (second compound 0.0316 µM, first compound 0.00999 µM) of the same molecule?
Answer: 133%

Question: And the viability, T/C [1]?
Answer: 109%

Question: And the viability, T/C (second compound 0.0316 µM, first compound 0.0999 µM)?
Answer: 72.3%

Question: What about the viability, T/C [2] of the same molecule?
Answer: 23.4%

Question: What about the viability, T/C (second compound 0.1 µM, first compound 0.000999 µM) of the same molecule?
Answer: 113%

Question: What about the viability, T/C (second compound 0.1 µM, first compound 0.00316 µM) of the same molecule?
Answer: 132%

Question: What about the viability, T/C (second compound 0.1 µM, first compound 0.00999 µM) of the same molecule?
Answer: 128%

Question: What about the viability, T/C [3] of the same molecule?
Answer: 121%

Question: What about the viability, T/C (second compound 0.1 µM, first compound 0.0999 µM) of the same molecule?
Answer: 54.8%

Question: What about the viability, T/C [4] of the same molecule?
Answer: 19.7%

Question: What about the viability, T/C (second compound 0.316 µM, first compound 0.000999 µM) of the same molecule?
Answer: 105%

Question: What about the viability, T/C (second compound 0.316 µM, first compound 0.00316 µM) of the same molecule?
Answer: 125%

Question: And the viability, T/C (second compound 0.316 µM, first compound 0.00999 µM)?
Answer: 123%

Question: And the viability, T/C [5]?
Answer: 90.8%

Question: And the viability, T/C (second compound 0.316 µM, first compound 0.0999 µM)?
Answer: 68.7%

Question: What about the viability, T/C [6] of the same molecule?
Answer: 24.4%

Question: What about the viability, T/C (second compound 1 µM, first compound 0.000999 µM) of the same molecule?
Answer: 107%

Question: And the viability, T/C (second compound 1 µM, first compound 0.00316 µM)?
Answer: 114%

Question: What about the viability, T/C (second compound 1 µM, first compound 0.00999 µM) of the same molecule?
Answer: 134%

Question: And the viability, T/C [7]?
Answer: 114%

Question: What about the viability, T/C (second compound 1 µM, first compound 0.0999 µM) of the same molecule?
Answer: 82.6%

Question: What about the viability, T/C [8] of the same molecule?
Answer: 19%

Question: What about the viability, T/C (second compound 3.16 µM, first compound 0.000999 µM) of the same molecule?
Answer: 91.7%

Question: And the viability, T/C (second compound 3.16 µM, first compound 0.00316 µM)?
Answer: 116%

Question: What about the viability, T/C (second compound 3.16 µM, first compound 0.00999 µM) of the same molecule?
Answer: 119%

Question: What about the viability, T/C [9] of the same molecule?
Answer: 97%

Question: What about the viability, T/C (second compound 3.16 µM, first compound 0.0999 µM) of the same molecule?
Answer: 56.9%

Question: And the viability, T/C [10]?
Answer: 13.2%

Question: What about the viability, T/C (second compound 10 µM, first compound 0.000999 µM) of the same molecule?
Answer: 70.7%

Question: What about the viability, T/C (second compound 10 µM, first compound 0.00316 µM) of the same molecule?
Answer: 103%

Question: And the viability, T/C (second compound 10 µM, first compound 0.00999 µM)?
Answer: 79.3%

Question: What about the viability, T/C [11] of the same molecule?
Answer: 82.6%

Question: And the viability, T/C (second compound 10 µM, first compound 0.0999 µM)?
Answer: 33.3%

Question: What about the viability, T/C [12] of the same molecule?
Answer: 3.21%

Question: How did the pIC50 (second compound 0.0316 µM) turn out when O=C(NO)c1cnc(N2CCN(S(=O)(=O)c3ccc4ccccc4c3)CC2)nc1 + CN(C)c1ccc(Nc2c3ccc(NC(=O)CCN4CCCC4)cc3nc3cc(NC(=O)CCN4CCCC4)ccc23)cc1 was run?
Answer: 6.15

Question: What about the pIC50 (second compound 0.1 µM) of the same molecule?
Answer: 6.18

Question: And the pIC50 (second compound 0.316 µM)?
Answer: 6.31

Question: And the pIC50 (second compound 1 µM)?
Answer: 6.26

Question: And the pIC50 (second compound 3.16 µM)?
Answer: 6.13

Question: What about the pIC50 (second compound 10 µM) of the same molecule?
Answer: 6.42

Question: What about the viability, T/C [1] of the same molecule?
Answer: 127%

Question: What about the viability, T/C [13] of the same molecule?
Answer: 105%

Question: And the viability, T/C [2]?
Answer: 95.3%

Question: What about the viability, T/C [14] of the same molecule?
Answer: 30.6%

Question: And the viability, T/C [15]?
Answer: 0.19%

Question: What about the viability, T/C [16] of the same molecule?
Answer: 0.15%

Question: And the viability, T/C [3]?
Answer: 120%

Question: And the viability, T/C [17]?
Answer: 124%

Question: And the viability, T/C [4]?
Answer: 94.7%

Question: And the viability, T/C [18]?
Answer: 26%

Question: What about the viability, T/C [19] of the same molecule?
Answer: 0.16%

Question: What about the viability, T/C [20] of the same molecule?
Answer: 0.1%

Question: And the viability, T/C [5]?
Answer: 118%

Question: And the viability, T/C [21]?
Answer: 115%

Question: What about the viability, T/C [6] of the same molecule?
Answer: 58%

Question: And the viability, T/C [22]?
Answer: 31.6%

Question: What about the viability, T/C [23] of the same molecule?
Answer: 0.13%

Question: And the viability, T/C [24]?
Answer: 0.12%

Question: And the viability, T/C [7]?
Answer: 121%

Question: What about the viability, T/C [25] of the same molecule?
Answer: 116%

Question: And the viability, T/C [8]?
Answer: 60.9%

Question: What about the viability, T/C [26] of the same molecule?
Answer: 37%

Question: And the viability, T/C [27]?
Answer: 0.15%

Question: And the viability, T/C [28]?
Answer: 0.12%

Question: And the viability, T/C [9]?
Answer: 109%

Question: And the viability, T/C [29]?
Answer: 142%

Question: And the viability, T/C [10]?
Answer: 87.5%

Question: What about the viability, T/C [30] of the same molecule?
Answer: 37.7%

Question: What about the viability, T/C [31] of the same molecule?
Answer: 0.28%

Question: And the viability, T/C [32]?
Answer: 0.13%

Question: What about the viability, T/C [11] of the same molecule?
Answer: 94%

Question: And the viability, T/C [33]?
Answer: 94.1%

Question: What about the viability, T/C [12] of the same molecule?
Answer: 53.7%

Question: What about the viability, T/C [34] of the same molecule?
Answer: 17.1%

Question: What about the viability, T/C [35] of the same molecule?
Answer: 0.27%

Question: And the viability, T/C [36]?
Answer: 0.21%

Question: How did the pIC50 (second compound 0.0316 µM) turn out when COc1ccc([C@@H](O)c2cc(-c3ncnc4cc(N5CCOCC5)ccc34)c(F)cc2Cl)nn1 + Cc1[nH]c2ccc(F)cc2c1-c1nc2c3cccnc3c3ncccc3c2[nH]1 was run?
Answer: 5.45

Question: What about the pIC50 (second compound 0.1 µM) of the same molecule?
Answer: 5.57

Question: And the pIC50 (second compound 0.316 µM)?
Answer: 5.43

Question: And the pIC50 (second compound 1 µM)?
Answer: 5.44

Question: And the pIC50 (second compound 3.16 µM)?
Answer: 5.71

Question: What about the pIC50 (second compound 10 µM) of the same molecule?
Answer: 5.51

Question: And the viability, T/C [1]?
Answer: 93%

Question: And the viability, T/C [13]?
Answer: 92.3%

Question: What about the viability, T/C [2] of the same molecule?
Answer: 73.7%

Question: What about the viability, T/C [14] of the same molecule?
Answer: 62.3%

Question: What about the viability, T/C [15] of the same molecule?
Answer: 56%

Question: And the viability, T/C [16]?
Answer: 34.5%

Question: And the viability, T/C [3]?
Answer: 88.6%

Question: And the viability, T/C [17]?
Answer: 93%

Question: And the viability, T/C [4]?
Answer: 69.7%

Question: And the viability, T/C [18]?
Answer: 66.7%

Question: And the viability, T/C [19]?
Answer: 47.1%

Question: What about the viability, T/C [20] of the same molecule?
Answer: 34.1%

Question: And the viability, T/C [5]?
Answer: 82.3%

Question: What about the viability, T/C [21] of the same molecule?
Answer: 95.6%

Question: What about the viability, T/C [6] of the same molecule?
Answer: 83.2%

Question: What about the viability, T/C [22] of the same molecule?
Answer: 68.6%

Question: What about the viability, T/C [23] of the same molecule?
Answer: 54.3%

Question: What about the viability, T/C [24] of the same molecule?
Answer: 34.9%

Question: And the viability, T/C [7]?
Answer: 88.4%

Question: And the viability, T/C [25]?
Answer: 112%

Question: What about the viability, T/C [8] of the same molecule?
Answer: 88.5%

Question: What about the viability, T/C [26] of the same molecule?
Answer: 66.6%

Question: What about the viability, T/C [27] of the same molecule?
Answer: 58.4%

Question: And the viability, T/C [28]?
Answer: 32.2%

Question: What about the viability, T/C [9] of the same molecule?
Answer: 86.1%

Question: What about the viability, T/C [29] of the same molecule?
Answer: 90.5%

Question: What about the viability, T/C [10] of the same molecule?
Answer: 75.9%

Question: What about the viability, T/C [30] of the same molecule?
Answer: 60.4%

Question: What about the viability, T/C [31] of the same molecule?
Answer: 43.3%

Question: And the viability, T/C [32]?
Answer: 32.2%

Question: What about the viability, T/C [11] of the same molecule?
Answer: 99.4%

Question: What about the viability, T/C [33] of the same molecule?
Answer: 88.6%

Question: And the viability, T/C [12]?
Answer: 74.9%

Question: What about the viability, T/C [34] of the same molecule?
Answer: 64.3%

Question: What about the viability, T/C [35] of the same molecule?
Answer: 54.6%

Question: And the viability, T/C [36]?
Answer: 30.4%
